Experimental data taken from the NIST ThermoML archive (doi:10.1021/je3008974).

Settings: Liquid

F/C=C/C(F)(F)F [trans-1,3,3,3-tetrafluoropropene]
Settings	mass density [kg/m3]
285.5 K, 1018.5 kPa, isochoric method	1205.5
286.92 K, 2021.5 kPa, isochoric method	1205.4
288.32 K, 3010.5 kPa, isochoric method	1205.3
289.41 K, 3779.9 kPa, isochoric method	1205.2
291.42 K, 20124 kPa, isochoric method	1254.7
291.45 K, 5221.8 kPa, isochoric method	1205
298.03 K, 1062.5 kPa, isochoric method	1165.6
298.14 K, 9928.4 kPa, isochoric method	1204.5
298.15 K, 2000 kPa, Pycnometric method	1170.52
299.62 K, 2045.7 kPa, isochoric method	1165.5
301.21 K, 3025.5 kPa, isochoric method	1165.3
302.81 K, 4026.8 kPa, isochoric method	1165.2
304.38 K, 4991.3 kPa, isochoric method	1165.1
305.08 K, 14792 kPa, isochoric method	1203.9
312.4 K, 1349.3 kPa, isochoric method	1117.7
312.58 K, 10069 kPa, isochoric method	1164.5
312.58 K, 19938 kPa, isochoric method	1203.3
313.7 K, 2032.5 kPa, isochoric method	1117.6
315.61 K, 3038.9 kPa, isochoric method	1117.5
317.51 K, 4033.2 kPa, isochoric method	1117.4
319.6 K, 5142.9 kPa, isochoric method	1117.2
319.8 K, 24935 kPa, isochoric method	1202.7
320.41 K, 14882 kPa, isochoric method	1163.9
327 K, 29927 kPa, isochoric method	1202.2
328.71 K, 2042.5 kPa, isochoric method	1060.1
328.71 K, 9986.8 kPa, isochoric method	1116.5
328.72 K, 19949 kPa, isochoric method	1163.2
330.83 K, 2963.3 kPa, isochoric method	1060
333.13 K, 3964.2 kPa, isochoric method	1059.8
334.34 K, 34952 kPa, isochoric method	1201.6
335.43 K, 4968.4 kPa, isochoric method	1059.7
336.83 K, 24924 kPa, isochoric method	1162.6
337.81 K, 14797 kPa, isochoric method	1115.9
341.91 K, 40043 kPa, isochoric method	1201
345.09 K, 29935 kPa, isochoric method	1162
346.84 K, 9943.4 kPa, isochoric method	1058.9
347.53 K, 19908 kPa, isochoric method	1115.2
353.15 K, 12717 kPa, isochoric method	1058.5
353.15 K, 22854 kPa, isochoric method	1114.8
353.15 K, 34806 kPa, isochoric method	1161.4

FC(F)(F)I [trifluoroiodomethane]
Settings	mass density [kg/m3]
207.79 K, 10925 kPa, isochoric method	2455.5
210.4 K, 14322 kPa, isochoric method	2455
214.87 K, 20130 kPa, isochoric method	2454.2
214.92 K, 1055.7 kPa, isochoric method	2401.1
215.96 K, 2305 kPa, isochoric method	2400.9
216.71 K, 3175.5 kPa, isochoric method	2400.7
217.73 K, 4381.5 kPa, isochoric method	2400.5
218.37 K, 5116.4 kPa, isochoric method	2400.4
218.48 K, 25008 kPa, isochoric method	2453.5
222.4 K, 29924 kPa, isochoric method	2452.8
222.62 K, 10052 kPa, isochoric method	2399.6
226.21 K, 34684 kPa, isochoric method	2452.1
226.99 K, 15121 kPa, isochoric method	2398.8
229.95 K, 39202 kPa, isochoric method	2451.5
231.25 K, 20002 kPa, isochoric method	2398.1
231.74 K, 1109.5 kPa, isochoric method	2334.8
233.57 K, 2990.1 kPa, isochoric method	2334.5
234.66 K, 4114 kPa, isochoric method	2334.3
235.46 K, 4930.4 kPa, isochoric method	2334.1
235.5 K, 24985 kPa, isochoric method	2397.3
239.91 K, 29944 kPa, isochoric method	2396.6
240.52 K, 10116 kPa, isochoric method	2333.3
244.17 K, 34707 kPa, isochoric method	2395.8
245.45 K, 15114 kPa, isochoric method	2332.4
248.78 K, 39783 kPa, isochoric method	2395.1
250.46 K, 20143 kPa, isochoric method	2331.6
251.97 K, 1975.5 kPa, isochoric method	2256.4
253.21 K, 3063.1 kPa, isochoric method	2256.2
254.16 K, 3884.4 kPa, isochoric method	2256
255.27 K, 4873.4 kPa, isochoric method	2255.8
255.32 K, 25028 kPa, isochoric method	2330.8
260.19 K, 29834 kPa, isochoric method	2330
261.5 K, 10373 kPa, isochoric method	2254.8
265.13 K, 34684 kPa, isochoric method	2329.2
266.41 K, 776 kPa, isochoric method	2188.5
266.75 K, 1052.9 kPa, isochoric method	2188.4
267.06 K, 15109 kPa, isochoric method	2253.2
267.97 K, 1992.8 kPa, isochoric method	2188.2
269.24 K, 2976.2 kPa, isochoric method	2188
270.53 K, 3984.6 kPa, isochoric method	2187.8
270.93 K, 40330 kPa, isochoric method	2328.3
272.12 K, 5216.5 kPa, isochoric method	2187.6
272.85 K, 20116 kPa, isochoric method	2252.3
278.48 K, 25009 kPa, isochoric method	2252.2
278.49 K, 10098 kPa, isochoric method	2186.6
278.5 K, 24979 kPa, isochoric method	2251.5
284.17 K, 29780 kPa, isochoric method	2250.6
284.36 K, 940.5 kPa, isochoric method	2105.8
285.08 K, 15134 kPa, isochoric method	2185.7
285.92 K, 1976.8 kPa, isochoric method	2105.6
287.34 K, 2905.5 kPa, isochoric method	2105.4
288.88 K, 3930.3 kPa, isochoric method	2105.2
290.4 K, 34997 kPa, isochoric method	2249.7
290.43 K, 4950.8 kPa, isochoric method	2104.9
291.69 K, 20129 kPa, isochoric method	2184.7
296.15 K, 39750 kPa, isochoric method	2248.8
297.94 K, 861.4 kPa, isochoric method	2038.1
298.14 K, 10026 kPa, isochoric method	2103.9
298.15 K, 2000 kPa, Pycnometric method	2046.84
298.15 K, 25035 kPa, isochoric method	2183.8
300.01 K, 2068.2 kPa, isochoric method	2037.9
301.75 K, 3070.1 kPa, isochoric method	2037.6
303.44 K, 4061.6 kPa, isochoric method	2037.4
304.54 K, 29729 kPa, isochoric method	2182.8
305.17 K, 5069.5 kPa, isochoric method	2037.2
305.56 K, 14805 kPa, isochoric method	2102.8
311.69 K, 35046 kPa, isochoric method	2181.8
313.22 K, 982.5 kPa, isochoric method	1957.5
313.53 K, 19969 kPa, isochoric method	2101.8
313.58 K, 9932.8 kPa, isochoric method	2036.1
315.12 K, 1958.3 kPa, isochoric method	1957.3
317.18 K, 2990.2 kPa, isochoric method	1957
318.54 K, 40060 kPa, isochoric method	2180.9
319.17 K, 3976.2 kPa, isochoric method	1956.8
321.22 K, 5005.2 kPa, isochoric method	1956.5
321.68 K, 25300 kPa, isochoric method	2100.7
322.38 K, 14998 kPa, isochoric method	2034.9
328.99 K, 1994.4 kPa, isochoric method	1875.8
329.49 K, 30240 kPa, isochoric method	2099.6
331.3 K, 2985.8 kPa, isochoric method	1875.6
331.3 K, 10058 kPa, isochoric method	1955.3
331.31 K, 20061 kPa, isochoric method	2033.8
333.64 K, 3972.3 kPa, isochoric method	1875.3
336 K, 4985.7 kPa, isochoric method	1875
337.32 K, 35169 kPa, isochoric method	2098.6
340.45 K, 25264 kPa, isochoric method	2032.6
341.64 K, 15161 kPa, isochoric method	1954
343.84 K, 39291 kPa, isochoric method	2097.7
353.14 K, 20828 kPa, isochoric method	1952.6
353.15 K, 12322 kPa, isochoric method	1873
353.15 K, 32431 kPa, isochoric method	2031
